Common to all, as to assay type: cell-based, murine
In one test the test system is Aβ generation. The experiment in a line: Aβ ELISA, conditioned media of APP-transfected N2a cells (Example 1). The conditions noted are these: co-treatment with EGCG 20 μM, GC or C 80 μM, 12 hours; SweAPP N2a cells. As to the method: Aβ1-40 and 1-42 peptides were analyzed in the conditioned media from SweAPP N2a cells (FIGS. 1A, 1C, 1D) and transgenic APPsw mouse-derived primary neuronal cells (FIG. 1B) by ELISA (n=3 for each condition).
TAPI-1, β and γ-secretase inhibitors were obtained from Calbiochem (San Diego, Calif.). Green tea extract (75% polyphenols) was obtained from the Vitamin Shoppe™ (North Bergen, N.J.).
Cultured cells were lysed in ice-cold-lysis buffer (20 mM Tris, pH 7.5, 150 mM NaCl, 1 mM EDTA, 1 mM EGTA, 1% v/v Triton X-100, 2.5 mM sodium pyropgosphate, 1 mM β-glycerolphosphate, 1 mM Na3VO4, 1 μg/mL leupeptin, 1 mM PMSF) as previously described (Tan et al., 2002). Mouse brains were isolated under sterile conditions on ice and placed in ice-cold lysis buffer. Brains were then sonicated on ice for approximately 3 min, allowed to stand for 15 min at 4° C., and centrifuged at 15,000 rpm for 15 min. Total Aβ1-42 species were detected by acid extraction of brain homogenates in 5 M guanidine buffer (ret), followed by a 1:10 dilution in lysis buffer. Soluble Aβ1-42 was directly detected in cultured cell lysates or brain homogenates prepared with lysis buffer described above by a 1:4 or 1:10 dilution, respectively. Aβ1-42 was quantified in these samples using the Aβ1-42 ELISA kit (BioSource, Camarillo, Calif.) in accordance with the manufacturer's instructions, except that standards included a 0.5 M guanidine buffer.
In order to examine the effects of green tea's components on APP cleavage processing, for a first step, N2a neuroblastoma cells overproducing Aβ were treated with each of the aforementioned components at a wide range of doses. In addition, doses of (+)-catechin hydrate (CH) and gallic acid monohydrate (GAM) were included in the first step.
On the technique in general: In an ELISA, binding on a coated surface is turned into a signal by an enzyme label.

In another test the test system is APP cleavage processing. The experiment in a line: Western blot/immunoprecipitation of APP cleavage (CTFs, sAPP-α, holo APP) in APP-transfected N2a cells. As to conditions: for α-CTF generation and α-CTF to β-CTF ratio: 80 μM; for effect on the action of EGCG on α-CTF cleavage: GC or C 80 μM with EGCG, FIG. 2F; for α-CTF production: at the high dose. As to the method: Cell cultured supernatants were collected and cell lysates were prepared from these cultured cells.
Cultured cells and mouse brain were lysed in ice-cold lysis buffer described above, and an aliquot corresponding to 50 μg of total protein was electrophoretically separated using 16.5% Tris-tricine gels. Electrophoresed proteins were then transferred to PVDF membranes (Bio-Rad), washed in dH2O, and blocked for 1 hour at ambient temperature in Tris-buffered saline (TBS; Bio-Rad) containing 5% (w/v) for non-fat dry milk. After blocking, membranes were hybridized for 1 hour at ambient temperature with various antibodies, including against the C- (369), N-terminus of APP (22C11), the N-terminus of Aβ (6E10), and ADAM10 and TACE (Calbiochem). Membranes were then washed 3× for 5 min each in dH2O and incubated for 1 hour at ambient temperature with the appropriate HRP-conjugated secondary antibody (1:1,000, Pierce Biotechnology, Inc. Rockford, Ill.). All antibodies were diluted in TBS containing 5% (w/v) of non-fat dry milk. Blots were developed using the luminal reagent (Pierce Biotechnology). Densitometric analysis was done using the Fluor-S Multimager™ with Quantity One™ software (Bio-Rad). Immunoprecipitation was performed for detection of sAPP-α, sAPP-β and Aβ by incubating 200 μg of total protein of each sample with 6E10 (1:100; Signet) or 22C11 (1:100; Roche, Basel, Switzerland) overnight with gentle rocking at 4° C., and 10 μL of 50% protein A-Sepharose beads were then added to the sample (1:10; Sigma) prior to gentle rocking for an additional 4 hours at 4° C. Following washes with 1× cell lysis buffer, samples were subjected to Western blot as described above. Antibodies used for Western blot included antibody 369 (1:1,000), anti-C-terminal APP antibody (1:500; Chemicon, Temecula, Calif.), BAM-10 (1:1,000; Sigma), 6E10 (1:1,000; Signet) or anti-Actin antibody (1:1,500; as an internal reference control; Roche). α-, β- and γ-secretase activities were quantified in cell lysates and mouse brain homogenates using available kits based on secretase-specific peptides conjugated to fluorogenic receptor molecules (R&D Systems, Minneapolis, Minn.).

A further test deals with α-secretase. The experiment in a line: α-secretase cleavage activity kit, lysates of APP-transfected N2a cells. As to conditions: TAPI-1 25 μM with EGCG 20 μM, 4 hours; FIGS. 3d and e.
[1] abbreviates: 0.5 μM to 1.5 μM, SweAPP N2a cells, data not shown.

Peptide text beside a SMILES is read from it. * marks the point of attachment. Cbz = O=C(OCc1ccccc1)*

Regarding (−)-catechin, the “effect on the ability of EGCG to reduce Aβ production” value with Aβ generation was “markedly inhibits the ability of EGCG to reduce Aβ production”. In addition, in the test on APP cleavage processing, the “α-CTF generation and α-CTF to β-CTF ratio” value is “decreased”; the “effect on the action of EGCG on α-CTF cleavage” value was “significantly opposes”.

On to `CC(C)C[C@@H](C=O)NC(=O)[C@H](CC(C)C)NC(=O)[C@@H](NC(=O)OCc1ccccc1)C(C)C` [β-secretase inhibitor II, reference compound] (Cbz-Val-Leu-Leu-aldehyde), for which, in the test with APP cleavage processing (setting [1]), the “sAPP-α levels compared with EGCG” value was “failed to produce the same increased α-CTF and sAPP-α levels as EGCG”; the “α-CTF levels compared with EGCG” value was “failed to produce the same increased α-CTF and sAPP-α levels as EGCG”. As to `Oc1cc(O)c2c(c1)O[C@H](c1cc(O)c(O)c(O)c1)[C@@H](O)C2` [GC, (−)-gallocatechin], in the test with Aβ generation, the “effect on the ability of EGCG to reduce Aβ production” value is recorded as “markedly inhibits the ability of EGCG to reduce Aβ production”. Also, in the test on APP cleavage processing, the “α-CTF generation and α-CTF to β-CTF ratio” value is “decreased”; the “effect on the action of EGCG on α-CTF cleavage” value is “significantly opposes”. As for `Oc1cc(O)c2c(c1)O[C@@H](c1ccc(O)c(O)c1)[C@@H](O)C2` [(+) EC, (+)-epicatechin], the α-CTF production entry in the test on APP cleavage processing was “increases”.

Regarding `CC(C)C[C@H](CC(=O)NO)C(=O)N[C@@H](Cc1ccc2ccccc2c1)C(=O)N[C@@H](C)C(=O)NCCN` [TAPI-1, reference compound], the “effect on EGCG promotion of APP α-secretase cleavage” value in the test on α-secretase is on record as “significantly attenuated”. For the compound `Oc1cc(O)c2c(c1)O[C@H](c1ccc(O)c(O)c1)[C@H](O)C2` [(−) EC, (−)-epicatechin], the α-CTF production result with APP cleavage processing is listed as “increases”.

(Values after patent US20130261045A1, “GREEN TEA POLYPHENOL ALPHA SECRETASE ENHANCERS AND METHODS OF USE” (UNIVERSITY OF SOUTH FLORIDA, priority 2005, published 2013).)
